Source: the supplement of paper PMC11061612

What was measured:
[1] = test system: COR-L311 (Small Cell Lung Carcinoma); assay: Bliss excess, mean over the matrix (fraction); higher = more synergy
Procedure, shortened: (§1)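 After 24 hours at 37°C and 5% CO2 in 1536-well plates, cells in DMEM/F12 or RPMI plus 10% FBS received two-drug dose matrices for 72 hours. Viability came from CellTiter-Glo 2.0 luminescence and was scaled as inhibition, anchored at 0 by vehicle wells and at 1 by blank wells. Combination Emax is taken as the second-highest inhibition in the matrix, and Bliss excess as the observed combination effect less EA + EB − EA·EB, with EA and EB the single-agent effects.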

[2] = test system: NCI-H1666 (Lung Adenocarcinoma); assay: as above
Procedure, shortened: as §1

[3] = test system: NCI-H1693 (Lung Adenocarcinoma); assay: as above
Procedure, shortened: as §1

[4] = test system: ARH-77 (Non-Cancerous); assay: combination Emax (second highest fraction inhibited in the dose matrix, 72 h); higher = more inhibition; extreme values may be limits of the assay
Procedure, shortened: as §1

[5] = test system: CAL-29 (Bladder Carcinoma); assay: as above
Procedure, shortened: as §1

[6] = test system: CCK-81 (Colorectal Carcinoma); assay: as above
Procedure, shortened: as §1

[7] = test system: A549 (Lung Adenocarcinoma); assay: as above
Procedure, shortened: as §1

[8] = test system: A498 (Kidney Carcinoma); assay: as above
Procedure, shortened: as §1

[9] = test system: IGR-37 (Melanoma); assay: as above
Procedure, shortened: as §1

[10] = test system: HCC1954 (Breast Carcinoma); assay: as above
Procedure, shortened: as §1

[11] = test system: COLO-824 (Breast Carcinoma); assay: as above
Procedure, shortened: as §1

[12] = test system: NCI-H1581 (Non-Small Cell Lung Carcinoma); assay: as above
Procedure, shortened: as §1

[13] = test system: ECC10 (Gastric Carcinoma); assay: as above
Procedure, shortened: as §1

[14] = test system: JSC-1 (B-Cell Non-Hodgkin's Lymphoma); assay: as above
Procedure, shortened: as §1

[15] = test system: SK-MES-1 (Squamous Cell Lung Carcinoma); assay: as above
Procedure, shortened: as §1

[16] = test system: Hs-445 (Non-Cancerous); assay: as above
Procedure, shortened: as §1

[17] = test system: NCI-H64 (Small Cell Lung Carcinoma); assay: as above
Procedure, shortened: as §1

[18] = test system: 8-MG-BA (Glioblastoma); assay: as above
Procedure, shortened: as §1

[19] = test system: COR-L311 (Small Cell Lung Carcinoma); assay: as above
Procedure, shortened: as §1

[20] = test system: NY (Osteosarcoma); assay: as above
Procedure, shortened: as §1
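For Bliss excess, mean over the matrix in this document: after 72 h of two-drug dosing.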

Row | SMILES | Bliss excess [1] | Bliss excess [2] | Bliss excess [3] | combination Emax [4] | combination Emax [5] | combination Emax [6] | combination Emax [7] | combination Emax [8] | combination Emax [9] | combination Emax [10] | combination Emax [11] | combination Emax [12] | combination Emax [13] | combination Emax [14] | combination Emax [15] | combination Emax [16] | combination Emax [17] | combination Emax [18] | combination Emax [19] | combination Emax [20]
1 | NC1(C(=O)N[C@@H](CCO)c2ccc(Cl)cc2)CCN(c2ncnc3[nH]ccc23)CC1 [Capivasertib] + CC(C)n1c(=O)n(C)c2cnc3cc(F)c(-c4ccc(OCCCN5CCCCC5)nc4)cc3c21 [AZD1390] (first compound max 10 µM, 7x7, partner max 0.3 µM) | -0.0564 | -0.0285 | -0.111 | 0.657 | 0.337 | 0.327 | 0.59 | 0.542 | 0.447 | 0.752 | 0.464 | 0.129 | 0.274 | 0.364 | 0.237 | 0.483 | 0.251 | 0.387 | 0.685 | 0.309
2 | NC1(C(=O)N[C@@H](CCO)c2ccc(Cl)cc2)CCN(c2ncnc3[nH]ccc23)CC1 [Capivasertib] + CCN(CCO)CCCOc1ccc2c(Nc3cc(CC(=O)Nc4cccc(F)c4)[nH]n3)ncnc2c1 [AZD2811] (first compound max 10 µM, 7x7, partner max 1 µM) | -0.0461 | -0.0482 | -0.0446 | 0.748 | 0.452 | 0.366 | 0.698 | 0.586 | 0.371 | 0.87 | 0.85 | 0.469 | 0.86 | 0.69 | 0.36 | 0.678 | 0.668 | 0.508 | 0.915 | 0.257
3 | NC1(C(=O)N[C@@H](CCO)c2ccc(Cl)cc2)CCN(c2ncnc3[nH]ccc23)CC1 [Capivasertib] + COc1nnc2ccc(N3CCC(c4ccc(OCCN5CCN(C)C(=O)[C@H]5C)cc4)CC3)nn12 [AZD5153] (first compound max 10 µM, 7x7, partner max 1 µM) | -0.0089 | -0.0136 | -0.0062 | 0.885 | 0.723 | 0.695 | 0.823 | 0.824 | 0.662 | 0.922 | 0.776 | 0.462 | 0.981 | 0.793 | 0.583 | 0.722 | 0.548 | 0.797 | 1 | 0.346
4 | NC1(C(=O)N[C@@H](CCO)c2ccc(Cl)cc2)CCN(c2ncnc3[nH]ccc23)CC1 [Capivasertib] + C[C@@H]1COCCN1C2=NC(=NC(=C2)C3(CC3)[S@](=N)(=O)C)C4=C5C=CNC5=NC=C4 [AZD6738] (first compound max 10 µM, 7x7, partner max 10 µM) | -0.0213 | -0.0332 | -0.0526 | 0.927 | 0.716 | 0.857 | 0.848 | 0.694 | 0.733 | 0.859 | 0.68 | 0.235 | 0.498 | 0.95 | 0.855 | 0.78 | 0.861 | 0.873 | 0.787 | 0.645
5 | NC1(C(=O)N[C@@H](CCO)c2ccc(Cl)cc2)CCN(c2ncnc3[nH]ccc23)CC1 [Capivasertib] + Cn1cnc2c(F)c(Nc3ccc(Br)cc3Cl)c(C(=O)NOCCO)cc21 [Selumetinib] (first compound max 10 µM, 7x7, partner max 10 µM) | -0.0422 | -0.0165 | -0.0375 | 0.674 | 0.66 | 0.737 | 0.922 | 0.799 | 0.897 | 0.805 | 0.595 | 0.513 | 0.506 | 0.724 | 0.768 | 0.623 | 0.321 | 0.592 | 0.625 | 0.305
6 | Cc1nc(Nc2ncc(C(=O)Nc3c(C)cccc3Cl)s2)cc(N2CCN(CCO)CC2)n1 [Dasatinib] + CC(=O)Nc1cccc(-n2c(=O)n(C3CC3)c(=O)c3c(Nc4ccc(I)cc4F)n(C)c(=O)c(C)c32)c1 [Trametinib] (first compound max 2 µM, 7x7, partner max 1 µM) | -0.0295 | -0.0644 | 0.0432 | 0.635 | 0.625 | 0.641 | 0.97 | 0.503 | 0.838 | 0.279 | 0.232 | 0.552 | 0.856 | 0.543 | 0.941 | 0.517 | 0.185 | 0.756 | 0.0652 | 0.738
7 | COc1cccc2c1C(=O)c1c(O)c3c(c(O)c1C2=O)C[C@@](O)(C(=O)CO)C[C@@H]3O[C@H]1C[C@H](N)[C@H](O)[C@H](C)O1 [Doxorubicin] + Cc1cc2ncnn2cc1Nc1ncc2c(n1)n(C1CCOCC1)c(=O)n2C [AZD7648] (first compound max 1 µM, 7x7, partner max 10 µM) | 0.0893 | 0.0129 | 0.036 | 0.972 | 0.735 | 0.477 | 0.906 | 0.598 | 0.777 | 0.729 | 0.501 | 0.866 | 1 | 0.97 | 0.686 | 0.94 | 0.606 | 0.938 | 0.87 | 0.581
